Data: PubChem BioAssay AID1259407 (Chemical Carcinogenesis Research Information System (CCRIS), 2018)
The source made the active and inactive calls. How the calls were made is not given here.

Test system: CCRIS mutagenicity, Ames/micronucleus/aberration tests
Assay: CCRIS mutagenicity studies
[1] = Test System: AMES SALMONELLA TYPHIMURIUM, Strain/Indicator: TA98, Metabolic Activation: NONE, Method: PREINCUBATION
[2] = Test System: AMES SALMONELLA TYPHIMURIUM, Strain/Indicator: TA100, Metabolic Activation: NONE, Method: PREINCUBATION
[3] = Test System: AMES SALMONELLA TYPHIMURIUM, Strain/Indicator: TA98, Metabolic Activation: NONE, Method: STANDARD PLATE
[4] = Test System: AMES SALMONELLA TYPHIMURIUM, Strain/Indicator: TA100, Metabolic Activation: NONE, Method: STANDARD PLATE

Structure (SMILES): O=c1n(Cl)c(=O)n(Cl)c(=O)n1Cl
- mutagenic call [1]: inactive; negative
- mutagenic call (Test System: AMES SALMONELLA TYPHIMURIUM, Strain/Indicator: TA98, Metabolic Activation: RAT LIVER S-9, PHENOBARBITAL AND BETA-NAPHTHOFLAVONE, Method: PREINCUBATION): inactive; negative
- mutagenic call (Test System: AMES SALMONELLA TYPHIMURIUM, Strain/Indicator: TA98, Metabolic Activation: RAT, LIVER, S-9, KC 500, Method: PREINCUBATION): inactive; negative
- mutagenic call [2]: inactive; negative
- mutagenic call (Test System: AMES SALMONELLA TYPHIMURIUM, Strain/Indicator: TA100, Metabolic Activation: RAT LIVER S-9, PHENOBARBITAL AND BETA-NAPHTHOFLAVONE, Method: PREINCUBATION): inactive; negative
- mutagenic call (Test System: AMES SALMONELLA TYPHIMURIUM, Strain/Indicator: TA100, Metabolic Activation: RAT, LIVER, S-9, KC 500, Method: PREINCUBATION): inactive; negative
- mutagenic call (Test System: AMES SALMONELLA TYPHIMURIUM, Strain/Indicator: TA1535, Metabolic Activation: NONE, Method: PREINCUBATION): inactive; negative
- mutagenic call (Test System: AMES SALMONELLA TYPHIMURIUM, Strain/Indicator: TA1535, Metabolic Activation: RAT LIVER S-9, PHENOBARBITAL AND BETA-NAPHTHOFLAVONE, Method: PREINCUBATION): inactive; negative
- mutagenic call (Test System: AMES SALMONELLA TYPHIMURIUM, Strain/Indicator: TA1535, Metabolic Activation: RAT, LIVER, S-9, KC 500, Method: PREINCUBATION): inactive; negative
- mutagenic call (Test System: AMES SALMONELLA TYPHIMURIUM, Strain/Indicator: TA1537, Metabolic Activation: NONE, Method: PREINCUBATION): inactive; negative
- mutagenic call (Test System: AMES SALMONELLA TYPHIMURIUM, Strain/Indicator: TA1537, Metabolic Activation: RAT LIVER S-9, PHENOBARBITAL AND BETA-NAPHTHOFLAVONE, Method: PREINCUBATION): inactive; negative
- mutagenic call (Test System: AMES SALMONELLA TYPHIMURIUM, Strain/Indicator: TA1537, Metabolic Activation: RAT, LIVER, S-9, KC 500, Method: PREINCUBATION): inactive; negative
- mutagenic call (Test System: AMES SALMONELLA TYPHIMURIUM, Strain/Indicator: TA1538, Metabolic Activation: NONE, Method: PREINCUBATION): inactive; negative
- mutagenic call (Test System: AMES SALMONELLA TYPHIMURIUM, Strain/Indicator: TA1538, Metabolic Activation: RAT LIVER S-9, PHENOBARBITAL AND BETA-NAPHTHOFLAVONE, Method: PREINCUBATION): inactive; negative
- mutagenic call (Test System: AMES SALMONELLA TYPHIMURIUM, Strain/Indicator: TA1538, Metabolic Activation: RAT, LIVER, S-9, KC 500, Method: PREINCUBATION): inactive; negative
- mutagenic call (Test System: E. COLI, Strain/Indicator: WP2 UVRA, Metabolic Activation: NONE, Method: PREINCUBATION): inactive; negative
- mutagenic call (Test System: E. COLI, Strain/Indicator: WP2UVRA, Metabolic Activation: NONE, Method: PREINCUBATION): inactive; negative
- mutagenic call (Test System: E. COLI, Strain/Indicator: WP2UVRA, Metabolic Activation: RAT LIVER S-9, PHENOBARBITAL AND BETA-NAPHTHOFLAVONE, Method: PREINCUBATION): inactive; negative
- mutagenic call (Test System: E. COLI, Strain/Indicator: WP2 UVRA, Metabolic Activation: RAT, LIVER, S-9, KC 500, Method: PREINCUBATION): inactive; negative

Structure (SMILES): Cc1ccc(-c2nc(-c3ccc(C)cc3C)[nH]c2-c2ccc(C)cc2)cc1
- mutagenic call [3]: active; positive
- mutagenic call (Test System: AMES SALMONELLA TYPHIMURIUM, Strain/Indicator: TA98, Metabolic Activation: RAT LIVER S-9, 3-METHYLCHOLANTHRENE, SODIUM PHENOBARBITAL, Method: STANDARD PLATE): active; positive
- mutagenic call [4]: active; positive
- mutagenic call (Test System: AMES SALMONELLA TYPHIMURIUM, Strain/Indicator: TA100, Metabolic Activation: RAT LIVER S-9, 3-METHYLCHOLANTHRENE, SODIUM PHENOBARBITAL, Method: STANDARD PLATE): active; positive

Structure (SMILES): O=[N+]([O-])c1cccc2oc3ccccc3c12
- mutagenic call (Test System: AMES SALMONELLA TYPHIMURIUM, Strain/Indicator: TA98(1,8-DNP6), Metabolic Activation: NONE, Method: PREINCUBATION): inactive; negative
- mutagenic call (Test System: AMES SALMONELLA TYPHIMURIUM, Strain/Indicator: TA98(1,8-DNP6), Metabolic Activation: NONE, Method: SUSPENSION): inactive; negative
- mutagenic call (Test System: AMES SALMONELLA TYPHIMURIUM, Strain/Indicator: TA98(1,8-DNP6), Metabolic Activation: RAT, LIVER, S-9, PCB (5%), Method: PREINCUBATION): inactive; negative
- mutagenic call (Test System: AMES SALMONELLA TYPHIMURIUM, Strain/Indicator: TA98(NR), Metabolic Activation: NONE, Method: PREINCUBATION): inactive; negative
- mutagenic call (Test System: AMES SALMONELLA TYPHIMURIUM, Strain/Indicator: TA98(NR), Metabolic Activation: NONE, Method: SUSPENSION): inactive; negative
- mutagenic call (Test System: AMES SALMONELLA TYPHIMURIUM, Strain/Indicator: TA98(NR), Metabolic Activation: RAT, LIVER, S-9 (10%), Method: PREINCUBATION): inactive; negative
- mutagenic call (Test System: AMES SALMONELLA TYPHIMURIUM, Strain/Indicator: TA98(NR), Metabolic Activation: RAT, LIVER, S-9, 3-METHYLCHOLANTHRENE (10%), Method: PREINCUBATION): active; positive
- mutagenic call (Test System: AMES SALMONELLA TYPHIMURIUM, Strain/Indicator: TA98(NR), Metabolic Activation: RAT, LIVER, S-9, BETA-NAPHTHOFLAVONE (10%), Method: PREINCUBATION): inactive; negative
- mutagenic call (Test System: AMES SALMONELLA TYPHIMURIUM, Strain/Indicator: TA98(NR), Metabolic Activation: RAT, LIVER, S-9, PCB (5%), Method: PREINCUBATION): inactive; negative
- mutagenic call (Test System: AMES SALMONELLA TYPHIMURIUM, Strain/Indicator: TA98(NR), Metabolic Activation: RAT, LIVER, S-9, PCB (10%), Method: PREINCUBATION): inactive; negative
- mutagenic call (Test System: AMES SALMONELLA TYPHIMURIUM, Strain/Indicator: TA98(NR), Metabolic Activation: RAT, LIVER, S-9, PHENOBARBITAL (10%), Method: PREINCUBATION): inactive; negative
- mutagenic call [1]: inactive; negative
- mutagenic call (Test System: AMES SALMONELLA TYPHIMURIUM, Strain/Indicator: TA98, Metabolic Activation: NONE, Method: SUSPENSION): inactive; negative
- mutagenic call (Test System: AMES SALMONELLA TYPHIMURIUM, Strain/Indicator: TA98, Metabolic Activation: RAT, LIVER, S-9, PCB (5%), Method: PREINCUBATION): inactive; negative
- mutagenic call (Test System: AMES SALMONELLA TYPHIMURIUM, Strain/Indicator: TA98, Metabolic Activation: RAT, LIVER, S-9, PCB, Method: SUSPENSION): inactive; negative
- mutagenic call [2]: inactive; negative
- mutagenic call (Test System: AMES SALMONELLA TYPHIMURIUM, Strain/Indicator: TA100, Metabolic Activation: NONE, Method: SUSPENSION): inactive; negative
- mutagenic call (Test System: AMES SALMONELLA TYPHIMURIUM, Strain/Indicator: TA100, Metabolic Activation: RAT, LIVER, S-9, PCB (5%), Method: PREINCUBATION): inactive; negative
- mutagenic call (Test System: AMES SALMONELLA TYPHIMURIUM, Strain/Indicator: TA100, Metabolic Activation: RAT, LIVER, S-9, PCB, Method: SUSPENSION): inactive; negative

Structure (SMILES): CCC(CCC(C)O)COC(=O)c1ccccc1C(=O)O (centres undefined)
- mutagenic call (Test System: AMES SALMONELLA TYPHIMURIUM, Strain/Indicator: TA97, Metabolic Activation: NONE, Method: STANDARD PLATE): inactive; negative
- mutagenic call (Test System: AMES SALMONELLA TYPHIMURIUM, Strain/Indicator: TA97, Metabolic Activation: RAT, LIVER, S-9, AROCLOR 1254, Method: STANDARD PLATE): inactive; negative
- mutagenic call (Test System: AMES SALMONELLA TYPHIMURIUM, Strain/Indicator: TA97, Metabolic Activation: RAT, LIVER, S-9, DI(2-ETHYLHEXYL)PHTHALATE, Method: STANDARD PLATE): inactive; negative
- mutagenic call [3]: inactive; negative
- mutagenic call (Test System: AMES SALMONELLA TYPHIMURIUM, Strain/Indicator: TA98, Metabolic Activation: RAT, LIVER, S-9, AROCLOR 1254, Method: STANDARD PLATE): inactive; negative
- mutagenic call (Test System: AMES SALMONELLA TYPHIMURIUM, Strain/Indicator: TA98, Metabolic Activation: RAT, LIVER, S-9, DI(2-ETHYLHEXYL)PHTHALATE, Method: STANDARD PLATE): inactive; negative
- mutagenic call [4]: inactive; negative
- mutagenic call (Test System: AMES SALMONELLA TYPHIMURIUM, Strain/Indicator: TA100, Metabolic Activation: RAT, LIVER, S-9, AROCLOR 1254, Method: STANDARD PLATE): inactive; negative
- mutagenic call (Test System: AMES SALMONELLA TYPHIMURIUM, Strain/Indicator: TA100, Metabolic Activation: RAT, LIVER, S-9, DI(2-ETHYLEXYL)PHTHALATE, Method: STANDARD PLATE): inactive; negative
- mutagenic call (Test System: AMES SALMONELLA TYPHIMURIUM, Strain/Indicator: TA102, Metabolic Activation: NONE, Method: STANDARD PLATE): inactive; negative
- mutagenic call (Test System: AMES SALMONELLA TYPHIMURIUM, Strain/Indicator: TA102, Metabolic Activation: RAT, LIVER, S-9, AROCLOR 1254, Method: STANDARD PLATE): inactive; negative
- mutagenic call (Test System: AMES SALMONELLA TYPHIMURIUM, Strain/Indicator: TA102, Metabolic Activation: RAT, LIVER, S-9, DI(2-ETHYLHEXYL)PHTHALATE, Method: STANDARD PLATE): inactive; negative
